The source of these data is publication PMC9998255 (Archives of Pharmacal Research, 2023).

Data set [1] has as its system NLRP3 inflammasome. It is filed as cell-based, C57BL/6 mice.
For data set [2] the following is noted: 0.5 h, pH 7.4.
The conditions of data set [3]: 0.5 h, pH 7.4. This is another data set of the same source.
For data set [4], the system named is TAA-induced liver fibrosis. Further details: species or system BALB/c mice. To be noted: mouse, in vivo.
The conditions of data set [5]: in vivo; cited from earlier work.

Take `CC(=O)OC[C@H]1O[C@@H]([S-])[C@H](OC(C)=O)[C@@H](OC(C)=O)[C@@H]1OC(C)=O.CCP(CC)CC.[Au+]` [auranofin]: in data set [1], the “effect on ATP-induced IL-1β secretion” value is given as “inhibited ATP-induced IL-1β secretion”. The “percentage remaining after incubation with human liver microsomes” value in data set [2] stood at 6.9%. Also, the “percentage remaining after incubation with mouse liver microsomes” value in data set [3] is recorded as 1.5%. Also, the “efficacy on liver fibrosis compared with 10 mg/kg aurocyanide” value in data set [4] is given as “similar”. Further, the “fraction absorbed through the gastrointestinal tract” value in data set [5] is on record as 15–25%.
